How the values were obtained:
[1] = Plasma levels in cynomolgus monkeys after oral BID co-dosing of Compound 101 and dextromethorphan, with or without quinidine; assay type: in vivo
Description: Blood Sample Collection—Blood sampling tOOK place on Day 6 after oral administration of the last dose (Dose 11). Blood (approximately 1 mL) was collected via femoral vein into tubes containing sodium heparin anticoagulant at 0.25, 0.5, 1, 1.5, 2, 3.5, 6 and 8 hours. The plasma was separated via centrifugation and stored in −20° C. before analysis.
Dilution using cynomolgus monkey plasma blank were applied if the sample concentration was over the ULOQ of calibration standard curve. The data acquisition and control system was created using Analyst 1.4 software from ABI Inc.

[2] = Metabolic stability in cynomolgus monkey liver microsomes; details: 1 μM compound, 0.5 mg/mL microsomes; FIG. 1
Description: (§1) The objectives of this study were to determine the metabolic stability of the test compounds in pooled human and […] liver microsomal incubations. Samples of the test compounds, exposed to pooled human or […] liver microsomes, were analyzed using HPLC-MS (or MS/MS) detection. For determining metabolic stability, multiple reaction monitoring (MRM) was used to measure the disappearance of the test compounds.
(§2) Experimental Procedures: Human liver and Cynomolgus monkey liver microsomes were obtained from XenoTech, LLC (Lenexa, KS). The incubation mixtures were prepared as follows:
Incubation of Test Compounds with Liver Microsomes: The reaction mixture, minus cofactors, was prepared. An aliquot of the reaction mixture (without cofactors) was incubated in a shaking water bath at 37° C. for 3 minutes. Another aliquot of the reaction mixture was prepared as the negative control. The test compound was added into both the reaction mixture and the negative control at a final concentration of 0.10, 0.25, or 1 μM. An aliquot of the reaction mixture was prepared as a blank control, by the addition of plain organic solvent (no test compound is added). The reaction was initiated by the addition of cofactors (not added to the negative controls), and then incubated in a shaking water bath at 37° C. […]
All samples were analyzed using LC-MS (or MS/MS). […]

[3] = monkeys, FIG. 6
Description: OBJECTIVE—The objective of this study was to collect plasma samples from Cynomolgus Monkeys at various time points following oral administration of test articles in combination. The samples were used for the determination of plasma drug levels by LC/MS/MS for estimating pharmacokinetic parameters. This study was conducted in accordance with Shanghai Medicilon Inc. Standard Operating Procedures (SOPs). The Sponsor provided the test compounds and internal standard compound.
EXPERIMENTAL DESIGN—Four Cynomolgus Monkeys were used in this study.
The combination dose was prepared by mixing both by 1:1 to yield a concentration of 1 mg/mL for each compound. […] Quinidine was prepared in DMI:EtOH:PG:water (10:15:35:40, v/v/v/v) at 3 mg/mL and dosed separately. The doses were given BID orally with an interval of 12 hours. […] Dosing volume of Quinidine was determined based on the dose each animal was getting. Dose volumes for each test animal was determined based on individual body weight. Body weights were taken on each day of dose administration and were be recorded.
Urine Sample Collection—Urine samples in between two doses on Day 5 (for 12 hours between doses 9 and 10) were collected in a plate and quantified by volume. After collection, the urine samples were be stored in −20° C. and then shipped back to client. […]

[4] = Metabolic stability in human liver microsomes; details: for remained intact after 30 minutes of incubation: 0.25 μM compound, 2 mg/mL human liver microsomes, FIG. 2
Description: as §1, §2
Incubation of Test Compounds with Liver Microsomes: The reaction mixture, minus cofactors, was prepared. An aliquot of the reaction mixture (without cofactors) was incubated in a shaking water bath at 37° C. for 3 minutes. Another aliquot of the reaction mixture was prepared as the negative control. The test compound was added into both the reaction mixture and the negative control at a final concentration of 0.10, 0.25, or 1 μM. An aliquot of the reaction mixture was prepared as a blank control, by the addition of plain organic solvent (no test compound is added). The reaction was initiated by the addition of cofactors (not added to the negative controls), and then incubated in a shaking water bath at 37° C. Aliquots (200 μL) were withdrawn in triplicate at multiple time points and combined with 800 μL of ice-cold 50/50 acetonitrile/dH2O to terminate the reaction.
All samples were analyzed using LC-MS (or MS/MS). An LC-MRM-MS/MS method is used for metabolic stability. For testing in cynomolgus monkey liver microsomes, a final concentration of 1 μM of each compound and 0.5 mg/mL of microsomes were used.

[5] = molecular target: T1, Human CYP2D6+P450 Reductase SUPERSOMES (Homo sapiens, UniProt P10635); experiment: Metabolic stability in CYP2D6 SUPERSOMES; assay type: in vitro ADME; details: 0.1 μM compound, 20 minutes
T1 construct: purchased GenTest (Woburn, MA, USA); host or cells: insect cells (inferred from the negative control, insect cell microsomes)
Description: Human CYP2D6+P450 Reductase SUPERSOMES™ were purchased from GenTest (Woburn, MA, USA). […] Aliquots (50 μL) were removed from each sample and placed in wells of a multi-well plate at 0, 2, 5, 7, 12, 20, and 30 minutes and to each was added 50 μL of ice cold acetonitrile with 3 μM haloperidol as an internal standard to stop the reaction.
Plates containing the removed aliquots were then placed in −20° C. freezer for 15 minutes to cool. After cooling, 100 μL of deionized water was added to all wells in the plate. Plates were then spun in the centrifuge for 10 minutes at 3000 rpm. A portion of the supernatant (100 μL) was then removed, placed in a new plate and analyzed using Mass Spectrometry.

T1 sequence (P10635 whole entry): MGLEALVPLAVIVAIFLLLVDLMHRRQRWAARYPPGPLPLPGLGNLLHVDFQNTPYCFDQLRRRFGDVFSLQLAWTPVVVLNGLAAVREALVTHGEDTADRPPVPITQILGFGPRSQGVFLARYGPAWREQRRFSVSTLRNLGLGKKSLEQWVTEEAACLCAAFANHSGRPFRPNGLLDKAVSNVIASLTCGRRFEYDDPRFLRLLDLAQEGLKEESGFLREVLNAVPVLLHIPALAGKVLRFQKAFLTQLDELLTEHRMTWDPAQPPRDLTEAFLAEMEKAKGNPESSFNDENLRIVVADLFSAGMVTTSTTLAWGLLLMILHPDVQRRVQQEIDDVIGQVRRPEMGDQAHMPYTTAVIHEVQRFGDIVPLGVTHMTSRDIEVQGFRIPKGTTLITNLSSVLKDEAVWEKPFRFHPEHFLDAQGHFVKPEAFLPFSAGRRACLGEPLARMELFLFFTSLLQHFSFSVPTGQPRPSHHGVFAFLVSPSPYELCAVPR

Molecule | plasma levels compared to dextromethorphan ([1]; co administered with the same amount of quinidine, FIG. 5) | metabolism to deuterated dextrorphan isotopologues (plasma) ([1]; no quinidine, FIG. 4) | stability in monkey liver microsomes compared with dextromethorphan [2] | urine level of parent compound compared to dextromethorphan ([3]; at the same quinidine concentration) | remained intact after 30 minutes of incubation [4] | intact compound at the 20 minute time point with 2D6 Supersomes [5] | urine levels, effect of quinidine concentration [3] | remained intact after a 30 minute exposure ([4]; 0.5 mg/mL human liver microsomes) [%]
[2H]C([2H])([2H])Oc1ccc2c(c1)[C@]13CCCC[C@@H]1[C@H](C2)N(C([2H])([2H])[2H])CC3 [Compound 101, (+)-3-d3-methoxy-17-d3-methyl-(9α, 13α, 14α)-morphinan] | greater than dextromethorphan plasma levels | reduced relative to metabolism of dextromethorphan to dextrorphan | greater stability than dextromethorphan | less Compound 101 in the urine than dextromethorphan | approximately 45% |  |  | 
COc1ccc2c(c1)[C@]13CCCC[C@@H]1[C@H](C2)N(C)CC3 [Dextromethorphan, (+)-3-methoxy-17-methyl-(9α, 13α, 14α)-morphinan, reference compound] |  |  |  |  | about 33% | no intact dextromethorphan could be detected | affected by increasing quinidine concentration | 
(+)-3-d3-methoxy-17-methyl-(9α, 13α, 14α)-morphinan [Compound 100] |  |  | greater stability than dextromethorphan |  | ~42% |  |  | ~71
